In US20260151518A1, “LEUKOCYTE-SPECIFIC CELL PENETRATING MOLECULES” (Amytrx Therapeutics, Inc., priority 2021, published 2026):

Key:
[1] = Pharmacokinetics of [3H]-AMTX-100 after multiple routes of administration; format: in vivo, rat; settings: rat
Method: AMTX-100 was radiolabeled with 3H at lysine residues and injected into Sprague-Dawley rats in a single dose by seven different routes (intravenous, subcutaneous, topical [skin], intratracheal, intraduodenal, esophageal, and oral). The rats were evaluated at various time points, up to 120 hours, by: a) blood samples were taken for pharmacokinetics (PK) by cardiac puncture; b) rats were frozen and sectioned for QWBA and/or micro-auto-radiography and histology; and c) frozen sections were made and freeze dried and exposed to phosphor-storage imaging plates and tissue radioactivity in images was quantified as tissue: blood ratios.
For all PK studies, the following definitions were used: WB=whole blood; Plasma=whole blood depleted of red blood cells; WBCD=whole blood depleted of white blood cells in which the whole blood is passed over a Pall Acrodisc filter (about 60% efficient); WBCs=the cells which bind to, and are washed off, the Pall Acrodisc filter.

[2] = Tissue distribution of radioactivity by quantitative whole body autoradiography (QWBA) after single intravenous [3H]-AMTX-100; format: in vivo, rat
Method: The formulation was administered directly into a tail vein. The dose volume (2.5 mL/kg) was used to achieve a dose level of 5 mg/kg and radioactive dose levels of 100 μCi/kg (Phase 1) and 500 μCi/kg (Phase 2). The dose formulation was stirred continuously throughout the dosing procedure.
Quantitative Whole Body Autoradiography (QWBA). The frozen carcasses were subjected to QWBA. Sections were presented at up to five different levels of the rat body to include between 30 and 40 tissues (subject to presence of sufficient radioactivity).
The freeze-dried whole body autoradiography sections were exposed to phosphor-storage imaging plates and incubated at ambient temperature in the dark for seven days. Calibrated autoradiographic blood standards containing known amounts of radioactivity (nCi/g) were included in each exposure.
Distribution of radioactivity in tissues and [^3H]-blood standards (prepared and validated at Pharmaron UK Ltd.) was determined and quantified using a Fuji FLA-5100 fluorescent image analyzing system and associated Tina (version 2.09) and SeeScan (version 2.0) software. For each exposure, a standard curve was produced in SeeScan using the data from the autoradiographic blood standards from which tissue concentrations of radioactivity (μg equivalents/g) were determined.
A representative background radioactivity measurement for each exposure plate used was also taken. The number of measurements for each particular tissue was determined by the number of levels it appeared in. Multiple measurements were therefore performed for larger tissues that appeared in more than one level (e.g. liver), with only one measurement obtained for small tissues (e.g. thyroid gland). The limit of accurate quantification was considered to be the lowest [^3H]-blood standard visible.
Three of the carcasses obtained from the eight male Sprague Dawley rats subjected to whole blood collection and analysis after each receiving a single intravenous administration of [^3H]-AMTX-100, were selected for QWBA analysis at each of the following time points: 10 minutes and 2 and 12 hours post-dose.
Each carcass was snap frozen by immersion in a hexane/dry ice mixture immediately after collection and was then stored at approximately −20° C., pending analysis by QWBA.

[3] = single intravenous, 5 mg/kg, rat, 10 min
[4] = single intravenous, 5 mg/kg, rat, 2 hr

## CSCC[C@@H]1NC(=O)[C@H](CC(C)C)NC(=O)[C@H](CCCCN)NC(=O)[C@H](CCC(N)=O)CC(=O)[C@H](CCCNC(=N)N)NC(=O)[C@H](CCCCN)NC(=O)[C@H](CCCNC(=N)N)NC(=O)[C@H](CCC(N)=O)NC(=O)[C@H](C(C)C)NC(=O)[C@@H](NC(=O)[C@@H]2CCCN2C(=O)[C@H](C)NC(=O)[C@H](CC(C)C)NC(=O)[C@H](CC(C)C)NC(=O)[C@H](C)NC(=O)[C@H](CC(C)C)NC(=O)[C@H](CC(C)C)NC(=O)[C@@H](NC(=O)[C@H](C)NC(=O)[C@@H]2CCCN2C(=O)[C@H](CC(C)C)NC(=O)[C@H](CC(C)C)NC(=O)[C@H](C)NC(=O)[C@@H](NC(=O)[C@H](C)NC(=O)[C@H](C)N)C(C)C)C(C)C)CSSC[C@@H](C(=O)O)NC(=O)[C@@H]2CCCN2C1=O [[^3H]-AMTX-100]
[1]
  Specific target cells in blood: WBCs and not RBCs are the specific target
[1]; Sub-Q, single dose
  Residence time in plasma: > 672 h
[1]; after a single dose
  Presence in tissue: found in tissue in which WBCs congregate, but not cardiac or skeletal muscle tissue
[1]; all routes of administration
  Entry into the bloodstream: by all routes of administration makes its way into the bloodstream
[1]; esophageal administration, L-amino acid version
  Resistance to degradation: resistant to degradation
[2]; rats
  Radioactivity localization in heart and other muscle cells: lack of radioactivity localization in heart and other muscle cells
[2]; rats, spleen, lung, liver, lymph nodes, kidney, adrenal gland, bone marrow, pancreas, small intestine, etc.
  Organ localization of radioactivity: localized to organs where immune cells are known to reside and traffic through
[2]; [3]
  Concentration of radioactivity in Adrenal gland: 9.93 μg equivalents/g
  Concentration of radioactivity in Blood: residual cardiac: 2.89 μg equivalents/g
  Concentration of radioactivity in Bone: BLQ (Below lower limit of accurate quantification (<0.36 μg equivalents/g))
  Concentration of radioactivity in Bone marror: 4.44 μg equivalents/g
  Concentration of radioactivity in Brain: BLQ (Below lower limit of accurate quantification (<0.36 μg equivalents/g))
  Concentration of radioactivity in Caecum contents: BLQ (Below lower limit of accurate quantification (<0.36 μg equivalents/g))
  Concentration of radioactivity in Caecum mucosa: 0.82 μg equivalents/g
  Concentration of radioactivity in Choroid plexus: 0.71 μg equivalents/g
  Concentration of radioactivity in Epididymis: 0.44 μg equivalents/g
  Concentration of radioactivity in Ex-orbital lachrymal gland: 0.71 μg equivalents/g
  Concentration of radioactivity in Eye: lens: BLQ (Below lower limit of accurate quantification (<0.36 μg equivalents/g))
  Concentration of radioactivity in Eye: whole: BLQ (Below lower limit of accurate quantification (<0.36 μg equivalents/g))
  Concentration of radioactivity in Fat: brown: 0.59 μg equivalents/g
  Concentration of radioactivity in Fat: white: 0.38 μg equivalents/g
  Concentration of radioactivity in Forestomach mucosa: 0.52 μg equivalents/g
  Concentration of radioactivity in Glandular stomach mucosa: 1.13 μg equivalents/g
  Concentration of radioactivity in Harderian gland: 0.46 μg equivalents/g
  Concentration of radioactivity in Kidney: cortex: 16.30 μg equivalents/g
  Concentration of radioactivity in Kidney: medulla: 10.10 μg equivalents/g
  Concentration of radioactivity in Kidney: whole: 13.30 μg equivalents/g
  Concentration of radioactivity in Large intestine contents: BLQ (Below lower limit of accurate quantification (<0.36 μg equivalents/g))
  Concentration of radioactivity in Large intestine mucosa: 0.80 μg equivalents/g
  Concentration of radioactivity in Liver: 58.60 μg equivalents/g
  Concentration of radioactivity in Lung: 96.70 μg equivalents/g
  Concentration of radioactivity in Lymph node: 1.13 μg equivalents/g
  Concentration of radioactivity in Muscle: 0.52 μg equivalents/g
  Concentration of radioactivity in Myocardium: 1.25 μg equivalents/g
  Concentration of radioactivity in Pancreas: 1.71 μg equivalents/g
  Concentration of radioactivity in Pituitary gland: 2.21 μg equivalents/g
  Concentration of radioactivity in Prostate gland: 0.41 μg equivalents/g
  Concentration of radioactivity in Salivary gland: 1.09 μg equivalents/g
  Concentration of radioactivity in Skin: 0.48 μg equivalents/g
  Concentration of radioactivity in Small intestine contents: BLQ (Below lower limit of accurate quantification (<0.36 μg equivalents/g))
  Concentration of radioactivity in Small intestine mucosa: 0.54 μg equivalents/g
  Concentration of radioactivity in Spinal cord: BLQ (Below lower limit of accurate quantification (<0.36 μg equivalents/g))
  Concentration of radioactivity in Spleen: red pulp: 15.40 μg equivalents/g
  Concentration of radioactivity in Spleen: white pulp: 8.70 μg equivalents/g
  Concentration of radioactivity in Spleen: whole: 55.80 μg equivalents/g
  Concentration of radioactivity in Stomach contents: BLQ (Below lower limit of accurate quantification (<0.36 μg equivalents/g))
  Concentration of radioactivity in Testis: BLQ (Below lower limit of accurate quantification (<0.36 μg equivalents/g))
  Concentration of radioactivity in Thymus: 0.45 μg equivalents/g
  Concentration of radioactivity in Thyroid gland: 1.66 μg equivalents/g
  Concentration of radioactivity in Urinary bladder contents: 67.50 μg equivalents/g
  Concentration of radioactivity in Urinary bladder wall: 0.69 μg equivalents/g
[2]; [4]
  Concentration of radioactivity in Adrenal gland: 5.33 μg equivalents/g
  Concentration of radioactivity in Blood: residual cardiac: 0.82 μg equivalents/g
  Concentration of radioactivity in Bone: BLQ (Below lower limit of accurate quantification (<0.36 μg equivalents/g))
  Concentration of radioactivity in Bone marror: 4.40 μg equivalents/g
  Concentration of radioactivity in Brain: BLQ (Below lower limit of accurate quantification (<0.36 μg equivalents/g))
  Concentration of radioactivity in Caecum contents: BLQ (Below lower limit of accurate quantification (<0.36 μg equivalents/g))
